Like-named read-outs stand apart in the source and are kept apart here.
Target: T1, phosphatase ABI1 via the co-regulator RCAR11/PYR1 (Arabidopsis thaliana, UniProt O49686+P49597)
T1 sequence (O49686 1-191): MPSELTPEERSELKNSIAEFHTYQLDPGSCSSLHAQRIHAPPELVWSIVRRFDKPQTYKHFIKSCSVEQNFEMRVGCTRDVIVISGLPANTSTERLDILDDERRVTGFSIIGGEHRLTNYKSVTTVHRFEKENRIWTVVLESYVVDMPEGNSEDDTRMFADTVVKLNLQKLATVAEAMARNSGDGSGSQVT
T1 sequence (P49597 1-434): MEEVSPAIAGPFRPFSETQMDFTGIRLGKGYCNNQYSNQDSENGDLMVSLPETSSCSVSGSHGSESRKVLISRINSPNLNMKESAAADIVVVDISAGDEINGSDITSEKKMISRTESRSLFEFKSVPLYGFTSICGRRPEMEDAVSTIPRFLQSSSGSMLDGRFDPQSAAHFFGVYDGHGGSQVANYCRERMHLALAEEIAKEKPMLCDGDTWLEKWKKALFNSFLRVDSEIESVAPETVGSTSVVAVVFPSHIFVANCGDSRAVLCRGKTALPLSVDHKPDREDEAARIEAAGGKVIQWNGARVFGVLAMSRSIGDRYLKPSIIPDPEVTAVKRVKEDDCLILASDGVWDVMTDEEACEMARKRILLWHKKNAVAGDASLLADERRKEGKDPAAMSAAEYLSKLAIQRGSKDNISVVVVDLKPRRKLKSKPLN
Assay: In vitro assay: inhibition of the phosphatase ABI1 via the co-regulator RCAR11/PYR1, MUP dephosphorylation, fluorescence
Format: biochemical
Design: inhibition: dose or concentration left out as unconfirmed
Conditions: for inhibition: read-out: ABI1 inhibition; for ABI1 inhibition: concentration of 5 mM of the substance in a solution of DMSO and water
Description: Effects of the phytohormone abscisic acid (ABA) on the behaviour of plants under abiotic stress and the mechanism of action of ABA are described in the literature (cf. Abrams et al, WO97/23441, Cutler, Park et al. Science, 2009, 324, 1068; Grill et al. Science, 2009, 324, 1064; Tanokura et al. Biophysics, 2011, 7, 123; Schroeder et al. Plant J. 2010, 61, 290). Therefore, it is possible with the aid of a suitable in vitro test system to derive a correlation between the action of ABA and the stress response of a plant under abiotic stress. Under drought stress, plants form the phytohormone abscisic acid (ABA). This binds, along with a co-regulator (Regulatory Component of ABA-Receptor=RCAR according to Grill et al. Science, 2009, 324, 1064 or PYR/PYL according to Cutler et al. Science, 2009, 324, 1068), to a phosphatase (e.g. ABI1, a type 2C protein phosphatase, also abbreviated to PP2C) and inhibits its activity. As a result, a “downstream” kinase (e.g. SnRK2) is no longer dephosphorylated. This kinase, which is thus active, via phosphorylation of transcription factors (e.g. AREB/ABF, vgl. Yoshida et al., Plant J. 2010, 61, 672), switches on a genetic protection programme to increase drought stress tolerance.
The assay described hereinafter utilizes the inhibition of the phosphatase ABI1 via the co-regulator RCAR11/PYR1 aus Arabidopsis thaliana.
For the determination of activity, the dephosphorylation of 4-methylumbelliferyl phosphate (MUP) was measured at 460 nm. The in vitro assay was conducted in Greiner 384-well PS microplates F-well, using two controls: a) dimethyl sulphoxide (DMSO) 0.5% (f.c.) and b) 5 μM (f.c.) abscisic acid (ABA). […] The substance solution thus obtained, if necessary, was stirred with esterase from porcine liver (EC 3.1.1.1) at room temperature for 3 h and centrifuged at 4000 rpm for 30 min. A total volume of 45 μl was introduced into each cavity of the microplate, having the following composition: • 1) 5 μl of substance solution, i.e. a) DMSO 5% or b) abscisic acid solution or c) the corresponding example compound of the general formula (I) dissolved in 5% DMSO. • 2) 20 μl of enzyme buffer mix, composed of a) 40% by vol. of enzyme buffer (10 ml contain equal proportions by volume of 500 mM Tris-HCl pH8, 500 mM NaCl, 3.33 mM MnCl2, 40 mM dithiothreitol (DTT)), b) 4% by vol. of ABI1 dilution (protein stock solution was diluted so as to give, after addition, a final concentration in the assay of 0.15 μg ABI1/well), c) 4% by vol. of RCAR11 dilution (enzyme stock was diluted so as to give, on addition of the dilution to the enzyme buffer mix, a final concentration in the assay of 0.30 μg enzyme/well), d) 5% by vol. of Tween20 (1%), e) 47% by vol. H2O bi-dist. • 3) 20 μl of substrate mix, composed of a) 10% by vol. of 500 mM Tris-HCl pH8, b) 10% by vol. of 500 mM NaCl, c) 10% by vol. of 3.33 mM MnCl2, d) 5% by vol. of 25 mM MUP, 5% by vol. of Tween20 (1%), 60% by vol. of H2O bi-dist.
Enzyme buffer mix and substrate mix were made up 5 minutes prior to the addition and warmed to a temperature of 35° C. On completion of pipetting of all the solutions and on completion of mixing, the plate was incubated at 35° C. for 20 minutes. Finally, a relative fluorescence measurement was made at 35° C. with a BMG Labtech “POLARstar Optima” microplate reader using a 340/10 nm excitation filter and a 460 nm emission filter. The efficacy of the compounds of the general formula (I) is reported in the table which follows using abscisic acid (No. 64) as comparative substance according to the following classification: ++++ (inhibition≥90%), +++ (90%>inhibition≥70%), ++ (70%>inhibition≥50%), +(50%>inhibition≥30%).
Effects of selected compounds of the general formula (I) in the above-described in vitro assay at a concentration of 5 mM of the substance of the general formula (I) in question in a solution of DMSO and water: […]

[1] = MUP dephosphorylation, fluorescence 460 nm

ABI1 inhibition [1] | Compound | other results
– | CC1=CC(=O)CC(C)(C)[C@@]1(O)/C=C/C(C)=C\C(=O)O [abscisic acid, reference compound] | inhibition: > 90%
+++ (90%>inhibition≥70%) | CCOC(=O)C=C(C#CC(O)(c1ccc(C)cc1)C1(C#N)CC1)C(F)(F)F (racemic) [I.1-813] | –
++++ (inhibition≥90%) | CCC(C#CC(O)(c1ccc(C)cc1)C1(C#N)CC1)=CC(=O)OCCOC (racemic) [I.1-801] | –
+++ (90%>inhibition≥70%) | CCCOC(=O)C=C(C#CC(O)(c1ccc(C)cc1)C1(C#N)CC1)C(F)(F)F (racemic) [I.1-888] | –
– | CCC(CC)C(O)(/C=C/C(=C\C(=O)OC)C(F)(F)F)C1(C#N)CC1 (stereo not drawn) [I.2-585, Methyl (2E,4E)-6-(1-cyanocyclopropyl)-7-ethyl-6-hydroxy-3-(trifluoromethyl)nona-2,4-dienoate] | inhibition [1]: > 90%
+++ (90%>inhibition≥70%) | COC(=O)C=C(C#CC(O)(c1cccc(F)c1)C1(C#N)CC1)C(F)(F)F (racemic) [I.1-782] | –
+++ (90%>inhibition≥70%) | CCOC(=O)C=C(C#CC(O)(C(CC)CC)C1(C#N)CC1)C(F)(F)F (racemic) [I.1-723] | –
+++ (90%>inhibition≥70%) | CCOC(=O)/C=C(/C)C#CC(C)(O)C1(C#N)CC1 (stereo not drawn) [I.1-36] | –
+++ (90%>inhibition≥70%) | CCOC(=O)C=C(C)C#CC(O)(c1ccc(C)cc1)C1(C#N)CC1 (racemic) [I.1-822] | –
+++ (90%>inhibition≥70%) | COC(=O)/C=C(\C#CC(O)(C1CCCCC1)C1(C#N)CC1)C(F)(F)F (stereo not drawn) [I.1-692] | –
++++ (inhibition≥90%) | CCC(C#CC(O)(c1cccc(F)c1)C1(C#N)CC1)=CC(=O)OC (racemic) [I.1-768] | –
++ (70%>inhibition≥50%) | CC/C(C#CC(O)(c1ccc(F)cc1)C1(C#N)CC1)=C/C(=O)NC(C)C (stereo not drawn) [I.1-558] | –
– | CCOC(=O)/C=C(/C)C#CC(O)(c1ccccc1)C1(C#N)CC1 (stereo not drawn) [I.1.236] | inhibition [1]: > 90%
++++ (inhibition≥90%) | COC(=O)/C=C(\C#CC(O)(c1ccccc1)C1(C#N)CC1)C(F)(F)F (stereo not drawn) [I.1-220] | –
++++ (inhibition≥90%) | COC(=O)C=C(C=CC(O)(C1CCCCC1)C1(C#N)CC1)C(F)(F)F (racemic) [I.2-581] | –
++++ (inhibition≥90%) | CCCOC(=O)C=C(C=CC(O)(C1CCCCC1)C1(C#N)CC1)C(F)(F)F (racemic) [I.2-582] | –
+++ (90%>inhibition≥70%) | CCCC(C#CC(O)(c1cccc(F)c1)C1(C#N)CC1)=CC(=O)O (racemic) [I.1-773] | –
++++ (inhibition≥90%) | CCC(C#CC(O)(c1ccc(C)cc1)C1(C#N)CC1)=CC(=O)OC (racemic) [I.1-798] | –
++++ (inhibition≥90%) | CCCOC(=O)/C=C(\C#CC(O)(c1ccc(F)cc1)C1(C#N)CC1)CC (stereo not drawn) [I.1-613] | –
+++ (90%>inhibition≥70%) | CCOC(=O)C=C(C=CC(O)(C(C)C)C1(C#N)CC1)C1CCCC1 (racemic) [I.2-130] | –
– | CCC(=C/C(=O)OC)/C=C/C(O)(C1CCCCC1)C1(C#N)CC1 (stereo not drawn) [I.2-579, Methyl (2Z,4E)-6-(1-cyanocyclopropyl)-6-cyclohexyl-3-ethyl-6-hydroxyhexa-2,4-dienoate] | inhibition [1]: > 90%
++ (70%>inhibition≥50%) | CC/C(C#CC(O)(c1ccc(F)cc1)C1(C#N)CC1)=C/C(=O)NC1CC1 (stereo not drawn) [I.1-557] | –
++++ (inhibition≥90%) | CCOC(=O)/C=C(\C#CC(O)(c1ccccc1)C1(C#N)CC1)CC (stereo not drawn) [I.1-203] | –
+++ (90%>inhibition≥70%) | CCOC(=O)C=C(C#CC(O)(c1cccc(F)c1)C1(C#N)CC1)C(F)(F)F (racemic) [I.1-783] | –
++++ (inhibition≥90%) | COC(=O)/C=C(\C#CC(O)(c1ccc(F)cc1)C1(C#N)CC1)C(F)(F)F (stereo not drawn) [I.1-520] | –
++++ (inhibition≥90%) | CC/C(C#CC(O)(c1ccccc1)C1(C#N)CC1)=C/C(=O)OCCOC (stereo not drawn) [I.1-610] | –
++++ (inhibition≥90%) | CC(C=CC(O)(C(C)C)C1(C#N)CC1)=CC(=O)O (racemic) [I.2-134] | –

Source: patent US10322995B2, “Substituted cyano cycloalkyl penta-2,4-dienes, cyano cycloalkyl pent-2-en-4-ynes, cyano heterocyclyl penta-2,4-dienes and cyano heterocyclyl pent-2-en-4-ynes as active substances against abiotic plant stress” (BAYER CROPSCIENCE AKTIENGESELLSCHAFT, priority 2014, dated 2019)
